We go through one molecule from patent US20250304353A1, “ANTIMICROBIAL BOTTLE WITH ANTIMICROBIAL SEAL” (Microban Products Company, priority 2017, published 2025).

The test system of the test is Aspergillus niger. As to the kind of experiment: Anti-fungal efficacy of polypropylene cap, agar plate method AATCC 30 Part 3 (2017e). Format: cell-based. To be noted: injection molded polypropylene cap with 2.0 wt % Microban IF1-5033-050 (0.1 wt % thiabendazole); MEA plates, up to 7 days at about 30° C.; two replicate sub-samples. On the procedure: The anti-fungal efficacy of the polypropylene cap containing thiabendazole was tested. The fungicidal activity was determined using the agar plate method AATCC 30 Part 3 (2017e). Individual plates of Malt Extract Agar (MEA) were inoculated with Aspergillus niger from primary stock cultures held at about 2° C. to about 8° C. and then incubated at about 30° C.±2° C. for up to 7 days to produce mature spores. A spore suspension was prepared from the plates in 10 mL aliquots of sterile distilled water (SDW) and filtered using glass wool. The spore suspension was adjusted using SDW so that it contained ≥10^5 spores mL^−1. Two replicate sub-samples (i.e., the polypropylene cap with thiabendazole) were placed on the surface of individual MEA plates. A 100 μL aliquot of the spore suspension of Aspergillus niger was spread over the surface of both the sub-sample and the surrounding media. The sample plates were incubated for up to 7 days at about 30° C.±2° C. […] An injection molded polypropylene cap treated with 2.0 wt % of Microban IF1-5033-050 (i.e., 0.1 wt % of thiabendazole) was tested with Aspergillus niger.

As to `c1ccc2[nH]c(-c3cscn3)nc2c1` [thiabendazole], the “fungal growth (microscopic and/or macroscopic) on sub-sample and surrounding media” value is listed as “No surface growth”.
